Measurements: patent US20090298708A1, “2'-DEOXY-2'-FLUORO-BETA-D-ARABINONUCLEOSIDE 5'-TRIPHOSPHATES AND THEIR USE IN ENZYMATIC NUCLEIC ACID SYNTHESIS” (priority 2006, published 2009)

Target: T1, MMLV-RT (Moloney murine leukemia virus, UniProt P03355)
T1 construct: Reverse transcriptases (RT): • MMLV-RT (MMLV or MM; source: Fermentas); purchased Fermentas
Assay: Primer extension assay with MMLV-RT
Assay type: biochemical
Parameters: key to Incorporation of three 2′F-araTTP / 2′F-araCTP (incorporation efficiency) / Enzymatic activity during primer extension reactions: ++++: excellent (no pausing observed); +++: very good (with slight pausing); ++: Good, full-length products with significant pausing; +: significant pausing, no full-length product but at least one 2′F-araN incorporation detected
Conditions: for Enzymatic activity during primer extension reactions: plus dATP, dGTP; for Order of efficiency of incorporation: DNA template PF22 (T/U triphosphates) or PF24 (C triphosphates), three contiguous units; for Incorporation of three 2′F-araTTP / 2′F-araCTP (incorporation efficiency): DNA template PF22 (2′F-araTTP) or PF24 (2′F-araCTP)
Description: Primer extension assays were used to assess the incorporation of 2′F-araNTP on the various DNA templates (Table 1). The DNA primer (PF20) was first radioactively labeled at the 5′-hydroxyl terminus with a radioactive phosphorus probe and the enzyme T4 polynucleotide kinase (T4 PNK) (see Example 1 for General Methods). To assess the incorporation of 2′F-araNTPs, the primer and template were annealed, and the nucleoside 5′-triphosphates added in the presence of enzyme under the conditions specified in Table 2. Time points were obtained by analyzing small aliquots from the reaction mixture through polyacryamide gel electrophoresis (PAGE) and autoradiography.
Primer extension assays were used to assess the incorporation efficiency of contiguous 2′F-ara(T/C)TPs compared to 2′F-r(U/C)TP on a DNA template (e.g. PF22 or PF24). To this end, a DNA template (e.g. PF22: FIGS. 15, 16, 17A, 18, 21A; PF24: FIGS. 17B, 19, 20, 21B), primer and the appropriate NTPs (e.g. combination of dATP/dCTP/dGTP/ and NTP, where N=dT, 2′F-araT, 2′F-rU, or rU (FIGS. 15, 16, 17A, 18, 21A); or combination of dATP/dGTP/dTTP/ and NTP, where N=dC, 2′F-araC, 2′F-rC, or rC (FIGS. 17B, 19, 20, 21B)), were incubated in the presence one of MMLV-RT, 9N, HIV or DV polymerase. The protocols and conditions are described in Example 2 and Table 2.
Unless otherwise noticed in the Examples described below, the conditions used in the primer extension assays, such as dNTP concentration, reaction temperatures, concentration of Mg^2+, and reaction buffers (provided by the manufacturers, except for the HIV buffer which was prepared in-house) are shown in Table 2.
Primer extension assays were used to assess the incorporation of 2′F-araTTP on the DNA template (PF22). The DNA primer (PF20) was first radioactively labeled at the 5′-hydroxyl terminus with a radioactive phosphorus probe and the enzyme T4 polynucleotide kinase (T4 PNK) according to the manufacturer's specifications (MBI Fermentas Life Sciences, Burlington, ON). Incorporation of the ^32P label was accomplished in reaction mixtures consisting of DNA substrate (200 pmol), 2 μl loxreaction buffer (Buffer A for forward reaction: 500 mM Tris-HCl, pH 7.6 at 25° C., 100 mM MgCl2, 50 mM DTT, 1 mM spermidine and 1 mM EDTA), 1 μl T4 PNK enzyme solution (10 U/1 μl in a solution of 20 mM Tris-HCl, pH 7.5, 25 mM KCl, 0.1 mM EDTA, 2 mM DTT and 50% glycerol), 6 μl [γ-^32P]-ATP solution (6000 Ci/mmol, 10 mCi/ml; Amersham Biosciences, Inc.) and autoclaved sterile water to a final volume of 20 μl. The reaction mixture was incubated for about 45-60 min at 37° C., followed by a second incubation for 10 min at 95° C. to heat denature and deactivate the kinase enzyme. The solution was purified according to a standard protocol and the isolated yield of 5′-^32P-DNA following gel extraction averages 50%. The pure labeled samples were kept at −20° C. for future use.
Usually 2 or 3 folds of cold (unlabeled) DNA primer were combined with the radioactive primer. Then primer to template was mixed together with the final concentration at 85 nM for the primer and 255 nM for the template (i.e. the primer:template=1:3 molar ratio). The primer and template were heated at 95° C. for 5 min and annealed at 4° C. for at least two hours before use. In an Eppendorf tube, the following reagents, 5× or 10× buffer, nucleoside 5′-triphosphates (DATP, dGTP, dCTP, 2′F-araTTP at the same concentrations; see legend of FIG. 2), water, the primer and template mixture, were added together according to pre-calculated reaction volume (20 μL) and concentrations (see reaction conditions in Table 2). Mineral oil (20 μL) was usually used to prevent evaporation. The reaction mixture was incubated at either 37° C. or 55° C. and one of the various enzymes tested was added to initiate the primer extension reactions. […]

SMILES	Order of efficiency of incorporation (MMLV-RT, 37° C.)	Incorporation of three 2′F-araTTP / 2′F-araCTP (incorporation efficiency) (MMLV, 37° C.)	further results
Nc1ccn([C@@H]2O[C@H](COP(=O)(O)OP(=O)(O)OP(=O)(O)O)[C@@H](O)[C@@H]2F)c(=O)n1 [2′F-araCTP, 1-(2-deoxy-2-fluoro-β-D-arabinofuranosyl)cytosine 5′-triphosphate]	dCTP~2′F-rCTP ≧ 2′F-araCTP > CTP	++++	Enzymatic activity during primer extension reactions (Example 3, DNA template PF24, 3x 2′F-araCTP, dTTP, MMLV, 37° C.): +++; premature products (MMLV-RT, DNA template PF24, after 60 mins, 37° C.): ca. 90%
Cc1cn([C@@H]2O[C@H](COP(=O)(O)OP(=O)(O)OP(=O)(O)O)[C@@H](O)[C@@H]2F)c(=O)[nH]c1=O [2′F-araTTP, 1-(2-deoxy-2-fluoro-β-D-arabino-furanosyl)thymine 5′-triphosphate]	dTTP > 2′F-araTTP > 2′F-rUTP > UTP	+++	Enzymatic activity during primer extension reactions (Example 2, DNA template PF22, 3x 2′F-araTTP, dCTP, MMLV, 37° C.): +++; substrate property for MMLV (second incorporations of modified triphosphates) (MMLV, DNA template PF22, compared to 2′F-rUTP and rUTP): best substrate
Nc1ccn([C@@H]2O[C@H](COP(=O)(O)OP(=O)(O)OP(=O)(O)O)[C@@H](O)[C@H]2F)c(=O)n1 [2′F-rCTP, 1-(2-deoxy-2-fluoro-β-D-ribofuranosyl) cytosine 5′-triphosphate, reference compound]	dCTP~2′F-rCTP ≧ 2′F-araCTP > CTP	–	full-length product (MMLV-RT, DNA template PF24, 37° C.): ~100%
O=c1ccn([C@@H]2O[C@H](COP(=O)(O)OP(=O)(O)OP(=O)(O)O)[C@@H](O)[C@H]2F)c(=O)[nH]1 [2′F-rUTP, 1-(2-deoxy-2-fluoro-β-D-ribo-furanosyl)uracil 5′-triphosphate, reference compound]	dTTP > 2′F-araTTP > 2′F-rUTP > UTP	–	–
Nc1ccn([C@H]2C[C@H](O)[C@@H](COP(=O)(O)OP(=O)(O)OP(=O)(O)O)O2)c(=O)n1 [dCTP]	dCTP~2′F-rCTP ≧ 2′F-araCTP > CTP	–	–
Cc1cn([C@H]2C[C@H](O)[C@@H](COP(=O)(O)OP(=O)(O)OP(=O)(O)O)O2)c(=O)[nH]c1=O [dTTP, reference compound]	dTTP > 2′F-araTTP > 2′F-rUTP > UTP	–	–
